The record followed here is US9221796B2, “Selective NR2B antagonists” (BRISTOL-MYERS SQUIBB COMPANY, priority 2014, dated 2015).

Each structure is given as a SMILES string. Read-outs that look alike come from different tables or passages of the source.

For test [1], the system named is mice. Briefly: Mouse Forced Swim Test (mFST). The test is classed as in vivo. Particulars: 1 mg/Kg i.v., 15 min before swim session, 6 min test. On the procedure:
Mouse Forced Swim Test (mFST).
Forced Swim Test (FST) is an animal model used to assess antidepressant compounds in preclinical studies. The FST was performed similar to the method of Porsolt et al. with modifications (Porsolt R D, Bertin A, Jalfre M. Behavioral despair in mice: a primary screening test for antidepressants. Arch Int Pharmacodyn Thér 1977; 229:327-36). In this paradigm, mice are forced to swim in an inescapable cylinder filled with water. Under these conditions, mice will initially try to escape and eventually develop immobility behavior; this behavior is interpreted as a passive stress-coping strategy or depression-like behavior. […] The duration of immobility was evaluated during the total 6 min of the test and expressed as duration (sec) of immobility. […] All testing sessions were recorded with a video camera (Sony Handicam, Model: DCR—HC38E; PAL) and scoring was done using the Forced Swim Scan, Version 2.0 software (Clever Systems Inc., Reston, Va., USA; see Hayashi E, Shimamura M, Kuratani K, Kinoshita M, Hara H. Automated experimental system capturing three behavioral components during murine forced swim test. Life Sci. 2011 Feb. 28; 88(9-10):411-7 and Yuan P, Tragon T, Xia M, Leclair C A, Skoumbourdis A P, Zheng W, Thomas C J, Huang R, Austin C P, Chen G, Guitart X. Phosphodiesterase 4 inhibitors enhance […] in rodents. […]

Test [2] concerns the target NR2B-subtype NMDA receptors (Rattus norvegicus (Rat), UniProt P35439+Q00960). Briefly: Radioligand binding assay (3H Ro 25-6981 competition, forebrain membranes). Conditions: 3H Ro 25-6981 (4 nM). In outline:
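Rat forebrain membranes competed against [3H]Ro 25-6981 for 1 hr at room temperature, then filtered onto PEI-treated GF/B plates and counted by scintillation. CPM converted to % inhibition, concentration-response curves fitted, Ki derived from at least two experiments.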

Test [3] deals with NR2B-subtype receptors (Mus musculus (Mouse), UniProt P35438+Q01097). Briefly: Ex vivo occupancy assay. Particulars: mice, after i.v. dosing. The test is classed as in vivo. The procedure:
7-9 weeks old male CD-1 mice were dosed intravenously in a vehicle consisting of 10% dimethylacetamide, 40% PEG-400, […], and 30% water with experimental compounds and the forebrains were harvested 15 minutes […] by decapitation. The brain samples were immediately snap-frozen and stored at −80° C. On the following day, the dosed brain samples were thawed on ice for 15-20 minutes followed by homogenization using Polytron for 10 seconds in cold homogenization buffer composed of 50 mM KH2PO4 (pH adjusted to 7.4 with KOH), 1 mM EDTA, 0.005% Triton X 100 and protease inhibitor cocktail (Sigma Aldrich). The crude homogenates were further homogenized using a Dounce homogenizer and the homogenized membrane aliquots from all animals were flash-frozen and stored at −80° C. until further use. The whole homogenization process was performed on ice.
For determining occupancy, the membrane homogenates were first thawed on ice and then needle-homogenized using a 25 gauge needle. The homogenized membrane (6.4 mg/ml) was added to a 96-well plate followed by addition of ^3H Ro 25-6981 (6 nM). […] The filter plates were dried at 50° C. for 20 mins, incubated with microscint 20 for 10 minutes and read on TopCount (Perkin Elmer). […] Non-specific binding was determined using 10 μM Ro 25-6981 added to the wells containing membrane homogenates from vehicle-dosed animals. […]

NR2B-subtype NMDA receptors, sequence (Q00960 27-1482, other chains not shown): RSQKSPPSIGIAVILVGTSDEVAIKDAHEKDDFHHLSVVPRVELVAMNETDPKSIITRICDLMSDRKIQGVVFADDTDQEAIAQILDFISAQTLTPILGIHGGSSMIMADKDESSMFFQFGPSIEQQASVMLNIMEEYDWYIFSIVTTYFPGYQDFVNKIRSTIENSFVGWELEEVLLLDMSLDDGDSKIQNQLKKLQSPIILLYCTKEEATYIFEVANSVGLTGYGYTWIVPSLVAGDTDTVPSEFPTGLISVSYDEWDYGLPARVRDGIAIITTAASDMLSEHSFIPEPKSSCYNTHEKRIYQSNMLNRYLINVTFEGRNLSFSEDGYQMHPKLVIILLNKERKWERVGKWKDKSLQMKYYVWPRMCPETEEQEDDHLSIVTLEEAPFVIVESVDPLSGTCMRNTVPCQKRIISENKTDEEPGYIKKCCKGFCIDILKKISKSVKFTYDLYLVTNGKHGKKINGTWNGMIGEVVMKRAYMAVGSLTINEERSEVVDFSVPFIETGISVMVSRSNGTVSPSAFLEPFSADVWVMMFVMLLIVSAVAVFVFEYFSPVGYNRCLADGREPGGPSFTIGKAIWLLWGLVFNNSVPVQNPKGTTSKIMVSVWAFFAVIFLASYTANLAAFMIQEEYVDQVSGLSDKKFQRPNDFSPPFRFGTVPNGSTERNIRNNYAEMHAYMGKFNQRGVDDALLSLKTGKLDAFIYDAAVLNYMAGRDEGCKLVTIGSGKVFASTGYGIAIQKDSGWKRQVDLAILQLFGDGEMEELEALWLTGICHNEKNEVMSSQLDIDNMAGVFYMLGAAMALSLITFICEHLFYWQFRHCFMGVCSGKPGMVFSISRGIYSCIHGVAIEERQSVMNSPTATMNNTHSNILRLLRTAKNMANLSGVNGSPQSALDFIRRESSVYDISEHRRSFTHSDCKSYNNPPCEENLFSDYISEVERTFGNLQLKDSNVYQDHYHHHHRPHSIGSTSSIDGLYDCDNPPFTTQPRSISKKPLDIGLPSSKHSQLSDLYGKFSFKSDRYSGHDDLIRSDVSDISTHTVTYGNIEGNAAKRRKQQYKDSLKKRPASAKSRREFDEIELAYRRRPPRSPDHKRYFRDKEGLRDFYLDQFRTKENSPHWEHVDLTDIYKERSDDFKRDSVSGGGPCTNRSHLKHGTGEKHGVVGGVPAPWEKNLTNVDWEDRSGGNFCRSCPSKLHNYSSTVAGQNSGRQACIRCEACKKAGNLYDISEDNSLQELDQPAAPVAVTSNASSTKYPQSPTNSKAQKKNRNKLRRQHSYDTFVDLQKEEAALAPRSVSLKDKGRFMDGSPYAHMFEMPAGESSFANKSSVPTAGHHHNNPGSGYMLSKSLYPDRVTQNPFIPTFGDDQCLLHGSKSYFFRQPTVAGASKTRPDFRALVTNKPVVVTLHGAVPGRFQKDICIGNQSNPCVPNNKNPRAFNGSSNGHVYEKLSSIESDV
NR2B-subtype receptors, sequence (Q01097 27-1482, other chains not shown): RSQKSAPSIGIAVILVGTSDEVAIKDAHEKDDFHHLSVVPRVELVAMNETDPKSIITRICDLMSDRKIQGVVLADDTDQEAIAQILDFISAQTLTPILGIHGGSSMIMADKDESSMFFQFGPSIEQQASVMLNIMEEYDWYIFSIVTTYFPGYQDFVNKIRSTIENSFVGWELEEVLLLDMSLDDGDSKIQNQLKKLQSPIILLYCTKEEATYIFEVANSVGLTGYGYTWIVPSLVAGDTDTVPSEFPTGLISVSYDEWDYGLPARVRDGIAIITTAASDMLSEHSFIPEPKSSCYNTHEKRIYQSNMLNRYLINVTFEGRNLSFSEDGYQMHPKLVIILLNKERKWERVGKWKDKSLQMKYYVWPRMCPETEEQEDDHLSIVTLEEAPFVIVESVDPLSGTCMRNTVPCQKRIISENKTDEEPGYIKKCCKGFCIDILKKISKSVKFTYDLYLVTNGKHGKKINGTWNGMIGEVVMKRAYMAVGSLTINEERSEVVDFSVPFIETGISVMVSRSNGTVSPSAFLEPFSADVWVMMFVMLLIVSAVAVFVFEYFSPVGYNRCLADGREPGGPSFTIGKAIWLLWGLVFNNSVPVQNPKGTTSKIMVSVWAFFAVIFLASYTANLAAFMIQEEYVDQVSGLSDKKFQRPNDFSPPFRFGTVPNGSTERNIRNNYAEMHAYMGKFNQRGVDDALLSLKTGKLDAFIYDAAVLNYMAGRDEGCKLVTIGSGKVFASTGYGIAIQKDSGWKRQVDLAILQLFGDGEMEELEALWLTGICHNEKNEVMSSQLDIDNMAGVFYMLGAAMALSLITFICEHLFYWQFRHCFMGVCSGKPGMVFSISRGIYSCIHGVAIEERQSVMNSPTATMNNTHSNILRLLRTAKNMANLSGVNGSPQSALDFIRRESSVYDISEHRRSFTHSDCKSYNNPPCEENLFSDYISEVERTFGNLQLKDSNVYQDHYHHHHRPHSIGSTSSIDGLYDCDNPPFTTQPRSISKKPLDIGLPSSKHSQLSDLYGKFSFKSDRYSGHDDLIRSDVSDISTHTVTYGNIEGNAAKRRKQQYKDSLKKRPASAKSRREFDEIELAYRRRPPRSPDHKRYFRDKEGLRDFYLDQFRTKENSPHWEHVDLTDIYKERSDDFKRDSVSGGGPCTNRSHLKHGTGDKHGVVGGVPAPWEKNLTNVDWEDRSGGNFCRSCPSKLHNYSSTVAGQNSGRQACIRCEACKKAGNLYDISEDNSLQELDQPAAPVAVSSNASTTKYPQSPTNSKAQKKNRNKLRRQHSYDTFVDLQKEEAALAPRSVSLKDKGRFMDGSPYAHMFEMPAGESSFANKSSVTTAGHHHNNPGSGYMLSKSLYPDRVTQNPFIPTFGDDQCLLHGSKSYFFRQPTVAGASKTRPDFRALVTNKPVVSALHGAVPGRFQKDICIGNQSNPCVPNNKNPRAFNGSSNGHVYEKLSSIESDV

As for `Cc1ccc(CN2CC[C@@H](N3CC[C@@H](c4ccc(O)cc4)[C@H](F)C3)C2=O)cc1` [Example 46, P-4, (R)-3-((3S,4S)-3-fluoro-4-(4-hydroxyphenyl)piperidin-1-yl)-1-(4-methylbenzyl)pyrrolidin-2-one], the immobility time entry in test [1] was “statistically significant decrease in immobility time”.

Broadly, the Ki is a dissociation constant, usually derived from enzyme kinetics or from competition with a known ligand. In the case of `O=C1C(N2CCC(c3ccc(O)cc3)CC2)CCN1Cc1ccc(F)cc1` (racemic) [Example 1, 1-(4-Fluorobenzyl)-3-(4-(4-hydroxyphenyl)piperidin-1-yl)pyrrolidin-2-one], the Ki in test [2] (read-out: NR2B Binding Ki) was 3 nM; in test [2] (read-out: binding Ki) it was 4 nM. Moreover, the “occupancy of brain-resident NR2B-subtype receptors (in words)” value in test [3] was “occupies brain-resident NR2B-subtype receptors”.

Consider `O=C1C(N2CCC(c3ccc(O)cc3)CC2)CCN1Cc1ccc(O)cc1` (stereo not drawn) [Example 24, 1-(4-Hydroxybenzyl)-3-(4-(4-hydroxyphenyl)piperidin-1-yl)pyrrolidin-2-one], for which the Ki in test [2] (read-out: NR2B Binding Ki) is 4.7 nM.

With `Cc1ccccc1CN1CCC(N2CC[C@H](c3ccc(O)cc3)[C@@H](F)C2)C1=O` (stereo partly drawn) [Example 76, 3-((3R,4R)-3-Fluoro-4-(4-hydroxyphenyl)piperidin-1-yl)-1-(2-methylbenzyl)pyrrolidin-2-one], the inhibition constant Ki in test [2] (read-out: NR2B Binding Ki) came to 33 nM.

`O=C1C(N2CCC(c3ccc(O)cc3)CC2)CCCN1Cc1ccccc1` (single isomer, unassigned) [Example 41b, 1′-Benzyl-4-(4-hydroxyphenyl)-[1,3′-bipiperidin]-2′-one]: the Ki in test [2] (read-out: NR2B Binding Ki) is 200 nM.

Take `O=C1C(N2CC[C@H](c3ccc(O)cc3)[C@@H](F)C2)CCN1Cc1ccc(F)c(F)c1` (stereo partly drawn) [Example 85, 1-(3,4-Difluorobenzyl)-3-((3R,4R)-3-fluoro-4-(4-hydroxyphenyl)-piperidin-1-yl)pyrrolidin-2-one]: the inhibition constant (Ki) in test [2] (read-out: NR2B Binding Ki) was determined as 23 nM.

On to `O=C1[C@@H](N2CCC(c3ccc(O)cc3)CC2)CCN1Cc1ccc(F)cc1` [Example 2a, (S)-1-(4-Fluorobenzyl)-3-(4-(4-hydroxyphenyl)-piperidin-1-yl)pyrrolidin-2-one], for which the inhibition constant (Ki) in test [2] (read-out: NR2B Binding Ki) stood at 740 nM.
